Reference: patent US9180164B2, “Compounds and methods of modulating angiogenesis” (THE CLEVELAND CLINIC FOUNDATION, priority 2011, dated 2015)
Where two headings read alike, the source gives them in different places.

Columns and labels:
[1] = molecular target: T1, VEGFR-2 (Mus musculus, UniProt P35918); test: VEGFR-2 phosphorylation time course in mouse lung endothelial cells; type: cell-based; conditions: 20 ng/ml VEGF
T1 construct: endogenous in cells; host or cells: primary mouse lung endothelial cells (WT and DiYF mice)
Protocol: Serum starved wild type and DiYF endothelial cells were also treated with 20 ng/ml VEGF for 0-60 mins. Cell lysates were analyzed by Western blot using anti-integrin β3 [pY^747], anti-integrin [pY^759], anti-p-VEGFR-2, anti-VEGFR-2, anti-p-ERK1/2, anti-ERK1/2, anti-p-Akt, anti-Akt, anti-p-P38MAPK and anti-MAPK antibody. The wild type and DiYF endothelial cells were lysed and equal proteins from total cell lysates were subjected SDS-PAGS and analyzed by western blot using anti-VEGFR-2 and anti-CD-31 antibody.

[2] = test system: mouse lung endothelial cells; conditions: WT EC, vitronectin
Protocol: Transwell tissue culture inserts were coated with various integrin ligands for 24 h at 4° C. Both WT and DiYF lung endothelial cells were trypsinized and 1×10^5 cells were added into each well. The lower chamber contained varying concentrations of VEGF-A165 (0-20 ng/ml). Cells were allowed to migrate for 12 h and fixed with 3.7% formaldehyde/PBS for 15 min and stained with 0.5% crystal violet. The non-migrated cells adhered to the top surface were removed and three random 10× fields were photographed using Leica inverted phase contrast microscope.

[3] = test system: HUVECs (Human Umbilical vascular endothelial cells); test: Tube formation assay on Matrigel with inhibitory peptide; type: cell-based; conditions: 8 h
Protocol: The effect of αvβ3/VEGFR2 complex inhibiting peptides in accordance with the present invention on angiogenic function was assessed by tube formation assay on the basement membrane matrix preparation. […] Cells were washed twice with sterile PBS and seeded on Matrigel-coated plates in combination of presence/absence of VEGF and inhibitory peptide. Cells were further incubated at 37° C. for 8 h.

[4] = test system: mouse lung endothelial cells; conditions: 20 ng/ml VEGF, 8 h
Protocol: The formation of vascular tube-like structures by wild type and DiYF mouse lung endothelial cells were assessed on the basement membrane matrix preparation. Six well plates were coated with 0.5 ml of Matrigel according to the manufacturer's instructions. Wild type and DiYF mouse lung endothelial cells were detached from the tissue culture flasks using 20 mM EDTA. Cells were washed twice with sterile 1×PBS and seeded on Matrigel coated plate. Medium was supplemented with or without 20 ng/ml VEGF and further incubated at 37° C. for 8 h. The tube formation was observed using an inverted phase contrast microscope (Leica) and photographs were taken from each well. Using ImagePro software, the degree of tube formation was quantified by measuring the length of tubes in random fields.

T1 sequence (P35918 20-1345): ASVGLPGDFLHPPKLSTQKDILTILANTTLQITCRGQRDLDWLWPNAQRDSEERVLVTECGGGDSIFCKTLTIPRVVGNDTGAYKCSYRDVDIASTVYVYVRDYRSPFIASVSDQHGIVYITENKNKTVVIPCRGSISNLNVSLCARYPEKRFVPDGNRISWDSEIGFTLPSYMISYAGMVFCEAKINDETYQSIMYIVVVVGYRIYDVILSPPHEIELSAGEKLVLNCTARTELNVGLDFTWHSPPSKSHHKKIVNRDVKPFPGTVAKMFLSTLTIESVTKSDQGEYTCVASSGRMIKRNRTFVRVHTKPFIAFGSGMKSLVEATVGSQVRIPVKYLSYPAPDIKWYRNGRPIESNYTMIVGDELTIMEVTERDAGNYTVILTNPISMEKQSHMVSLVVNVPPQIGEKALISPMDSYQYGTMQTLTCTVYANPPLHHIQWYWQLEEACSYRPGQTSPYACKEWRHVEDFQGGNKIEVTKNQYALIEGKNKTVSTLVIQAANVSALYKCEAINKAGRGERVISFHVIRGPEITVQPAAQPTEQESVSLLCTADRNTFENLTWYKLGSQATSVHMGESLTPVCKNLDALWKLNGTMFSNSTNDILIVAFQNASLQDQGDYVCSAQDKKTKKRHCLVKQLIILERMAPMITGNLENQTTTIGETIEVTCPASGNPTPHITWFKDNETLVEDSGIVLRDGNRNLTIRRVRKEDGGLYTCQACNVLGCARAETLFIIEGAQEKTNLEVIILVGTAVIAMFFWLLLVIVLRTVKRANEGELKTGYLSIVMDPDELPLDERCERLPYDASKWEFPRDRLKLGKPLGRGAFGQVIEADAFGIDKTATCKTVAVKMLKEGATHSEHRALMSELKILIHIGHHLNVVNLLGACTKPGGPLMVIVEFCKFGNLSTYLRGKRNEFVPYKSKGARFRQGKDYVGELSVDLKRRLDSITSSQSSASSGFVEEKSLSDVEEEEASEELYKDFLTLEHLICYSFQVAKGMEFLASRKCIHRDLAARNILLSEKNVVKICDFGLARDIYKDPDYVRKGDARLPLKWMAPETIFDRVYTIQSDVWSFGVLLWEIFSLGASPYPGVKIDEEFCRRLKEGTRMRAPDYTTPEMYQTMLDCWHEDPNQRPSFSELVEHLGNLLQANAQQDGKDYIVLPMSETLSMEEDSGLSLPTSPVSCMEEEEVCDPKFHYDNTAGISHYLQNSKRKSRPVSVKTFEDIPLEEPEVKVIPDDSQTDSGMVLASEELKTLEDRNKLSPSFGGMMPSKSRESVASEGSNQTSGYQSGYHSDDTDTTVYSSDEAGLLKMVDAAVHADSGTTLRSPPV

Question: With VEGF as the substance, how does the “maximum increase in VEGFR-2 phosphorylation over control” value ([1]; DiYF EC) read?
Answer: 2.5 fold

Question: And the “maximum increase in VEGFR-2 phosphorylation over control” value ([1]; WT EC)?
Answer: 6 fold

Question: What about the “increase of migration compared to untreated EC” value (“increase of migration” below) ([2]; 5 ng/ml) of the same substance?
Answer: 1.5 fold

Question: And the “increase of migration” value ([2]; 10 ng/ml)?
Answer: 2.5 fold

Question: What about the “increase of migration” value ([2]; 20 ng/ml) of the same substance?
Answer: 2.9 fold

Question: And the “endothelial cell tube formation induced (length of tubes)” value [3]?
Answer: at least 450 μm/mm^2

Question: What about the “effect on length of the tubes” value ([4]; DiYF EC) of the same substance?
Answer: a little effect

Question: What about the “increase in the length of the tubes” value ([4]; WT EC) of the same substance?
Answer: about 3 fold
